Assay results from ChEMBL document CHEMBL5252615, “Synthesis, biological activity and mechanism of action of novel allosecurinine derivatives as potential antitumor agents” (Bioorg Med Chem, 2023).
Calls of active or inactive are those of the source. The calls are words filed in the database; no cut-off is given here.

Columns and labels:
NB-4 [1] = test: Induction of apoptosis in human NB4 cells assessed as decrease in expression level of caspase 3/9 measured at 1 to 5 uM after 48 hrs by Western blotting analysis; assay type: functional, cell-based; settings: dose 1-5 µM
HL-60 [2] = test: Induction of differentiation of human HL-60 cells assessed as increase in CD11b expression at 0.5 uM measured after 72 hrs by flow cytometric analysis; assay type: functional, cell-based
K562 [3] = test: Induction of apoptosis in human K562 cells assessed as early apoptotic cells at 2.5 uM after 48 hrs by Annexin-V-FITC/PI staining based flow cytometric analysis (reference value: 1.26%); assay type: functional
K562 [4] = test: Induction of apoptosis in human K562 cells assessed as late apoptotic cells at 2.5 uM after 48 hrs by Annexin-V-FITC/PI staining based flow cytometric analysis (reference value: 0.21%); assay type: functional
U-937 [5] = test: Induction of apoptosis in human U-937 cells assessed as accumulation of cells at G1 phase at 1 to 2.5 uM after 48 hrs by PI staining based flow cytometric analysis; assay type: functional, cell-based; settings: dose 1-2.5 µM
SU-DHL-2 = test: Antitumor activity against human SUDHL2 cells assessed as reduction in cell viability incubated for 72 hrs; assay type: functional, cell-based; settings: SU-DHL-2, 72 h
THP-1 [6] = test: Induction of apoptosis in human THP-1 cells assessed as early apoptotic cells at 2.5 uM after 48 hrs by Annexin-V-FITC/PI staining based flow cytometric analysis (reference value: 4.61%); assay type: functional
K562 [7] = test: Induction of apoptosis in human K562 cells assessed as decrease in expression level of caspase 3/9 measured at 1 to 5 uM after 48 hrs by Western blotting analysis; assay type: functional, cell-based; settings: dose 1-5 µM
NB-4 [8] = test: Induction of apoptosis in human NB4 cells assessed as late apoptotic cells at 2.5 uM after 48 hrs by Annexin-V-FITC/PI staining based flow cytometric analysis (reference value: 0.89%); assay type: functional
NB-4 [9] = test: Induction of apoptosis in human NB4 cells assessed as decrease in expression level of YAP1 measured at 1 to 5 uM after 48 hrs by Western blotting analysis; assay type: functional, cell-based; settings: dose 1-5 µM
KG-1 [10] = test: Induction of apoptosis in human KG-1 cells assessed as decrease in expression level of caspase 3/9 measured at 1 to 5 uM after 48 hrs by Western blotting analysis; assay type: functional, cell-based; settings: dose 1-5 µM
NB-4 [11] = test: Induction of apoptosis in human NB4 cells assessed as viable cells at 2.5 uM after 48 hrs by Annexin-V-FITC/PI staining based flow cytometric analysis (reference value: 97.96%); assay type: functional; settings: read-out: Activity
NB-4 [12] = test: Induction of apoptosis in human NB4 cells assessed as early apoptotic cells at 2.5 uM after 48 hrs by Annexin-V-FITC/PI staining based flow cytometric analysis (reference value: 0.86%); assay type: functional
U-937 [13] = test: Induction of apoptosis in human U-937 cells assessed as necrotic cells at 2.5 uM after 48 hrs by Annexin-V-FITC/PI staining based flow cytometric analysis (reference value: 1.41%); assay type: functional
U-937 [14] = test: Induction of apoptosis in human U-937 cells assessed as decrease in expression level of Bcl-2 measured after 48 hrs by Western blotting analysis; assay type: functional, cell-based; settings: dose 1-5 µM
U-937 [15] = test: Induction of apoptosis in human U-937 cells assessed as viable cells at 2.5 uM after 48 hrs by Annexin-V-FITC/PI staining based flow cytometric analysis (reference value: 94.78%); assay type: functional; settings: read-out: Activity
KG-1 [16] = test: Induction of reactive oxygen species production in human KG-1 cells at 1 to 5 uM measured after 48 hrs by DCFH-DA staining based flow cytometric analysis; assay type: functional, cell-based; settings: dose 1-5 µM
NB-4 [17] = test: Induction of apoptosis in human NB4 cells assessed as necrotic cells at 2.5 uM after 48 hrs by Annexin-V-FITC/PI staining based flow cytometric analysis (reference value: 0.29%); assay type: functional
THP-1 [18] = test: Induction of apoptosis in human THP-1 cells assessed as decrease in expression level of PARP measured at 1 to 5 uM after 48 hrs by Western blotting analysis; assay type: functional, cell-based; settings: dose 1-5 µM
HL-60 [19] = test: Induction of apoptosis in human HL-60 cells assessed as accumulation of cells at sub-G1 phase at 2.5 uM after 48 hrs by PI staining based flow cytometric analysis; assay type: functional, cell-based
U-937 [20] = test: Induction of differentiation of human U-937 cells assessed as increase in CD11b expression at 0.5 uM measured after 72 hrs by flow cytometric analysis; assay type: functional, cell-based
NB-4 [21] = test: Induction of differentiation of human NB4 cells assessed as increase in CD11b expression at 0.5 uM measured after 72 hrs by flow cytometric analysis; assay type: functional, cell-based
K562 [22] = test: Antitumor activity against human K562 cells assessed as reduction in cell viability incubated for 72 hrs; assay type: functional, cell-based; settings: K562, 72 h
KG-1 [23] = test: Induction of apoptosis in human KG-1 cells assessed as change in mitochondrial membrane potential after 48 hrs by JC-1 staining based flow cytometric analysis; assay type: functional, cell-based
U-937 [24] = test: Induction of apoptosis in human U-937 cells assessed as late apoptotic cells at 2.5 uM after 48 hrs by Annexin-V-FITC/PI staining based flow cytometric analysis (reference value: 0.94%); assay type: functional
U-937 [25] = test: Antitumor activity against human U-937 cells assessed as reduction in cell viability incubated for 72 hrs; assay type: functional, cell-based; settings: U-937, 72 h
KG-1 [26] = test: Induction of apoptosis in human KG-1 cells assessed as decrease in expression level of YAP1 measured at 1 to 5 uM after 48 hrs by Western blotting analysis; assay type: functional, cell-based; settings: dose 1-5 µM
KG-1 [27] = test: Induction of apoptosis in human KG-1 cells assessed as viable cells at 2.5 uM after 48 hrs by Annexin-V-FITC/PI staining based flow cytometric analysis (reference value: 96.41%); assay type: functional
KG-1 [28] = test: Induction of apoptosis in human KG-1 cells assessed as early apoptotic cells at 2.5 uM after 48 hrs by Annexin-V-FITC/PI staining based flow cytometric analysis (reference value: 0.70%); assay type: functional
K562 [29] = test: Induction of apoptosis in human K562 cells assessed as viable cells at 2.5 uM after 48 hrs by Annexin-V-FITC/PI staining based flow cytometric analysis (reference value: 97.34%); assay type: functional; settings: read-out: Activity
NB-4 [30] = test: Antitumor activity against human NB4 cells assessed as reduction in cell viability incubated for 72 hrs; assay type: functional, cell-based; settings: NB-4, 72 h
U-937 [31] = test: Induction of apoptosis in human U-937 cells assessed as change in mitochondrial membrane potential after 48 hrs by JC-1 staining based flow cytometric analysis; assay type: functional, cell-based
KG-1 [32] = test: Induction of apoptosis in human KG-1 cells assessed as decrease in expression level of XIAP measured at 1 to 5 uM after 48 hrs by Western blotting analysis; assay type: functional, cell-based; settings: dose 1-5 µM
K562 [33] = test: Induction of apoptosis in human K562 cells assessed as decrease in expression level of YAP1 measured at 1 to 5 uM after 48 hrs by Western blotting analysis; assay type: functional, cell-based; settings: dose 1-5 µM

## O=C1O[C@@]23C[C@@H](C=CC2=C1C(O)c1ccc([N+](=O)[O-])cc1)N1CCCC[C@H]13 (some centres undefined)
NB-4 [1]
  Activity: Active
HL-60 [2]
  Activity: Active
K562 [3]
  Activity: 3.32%
K562 [4]
  Activity: 12.56%
U-937 [5]
  Activity: Active
SU-DHL-2
  IC50: 8680 nM
THP-1 [6]
  Activity: 16.82%
K562 [7]
  Activity: Active
NB-4 [8]
  Activity: 50.58%
NB-4 [9]
  Activity: Active
KG-1 [10]
  Activity: Active
NB-4 [11]
  viability at 2.5 µM: 22.9%
NB-4 [12]
  Activity: 23.15%
U-937 [13]
  Activity: 29.96%
U-937 [14]
  Activity: Dose-Dependent Effect
U-937 [15]
  viability at 2.5 µM: 41.3%
KG-1 [16]
  Activity: Active
NB-4 [17]
  Activity: 3.4%
THP-1 [18]
  Activity: Active
HL-60 [19]
  Activity: Active
U-937 [20]
  Activity: Active
NB-4 [21]
  Activity: Active
K562 [22]
  IC50: 1780 nM
KG-1 [23]
  Activity: Active
U-937 [24]
  Activity: 15.33%
U-937 [25]
  IC50: 1530 nM
KG-1 [26]
  Activity: Active
KG-1 [27]
  Activity: 45.18%
KG-1 [28]
  Activity: 0.33%
K562 [29]
  viability at 2.5 µM: 77.5%
NB-4 [30]
  IC50: 1880 nM
U-937 [31]
  Activity: Active
KG-1 [32]
  Activity: Active
K562 [33]
  Activity: Active
